Here are results for 1 substance from US8703467B2 (priority 2004, dated 2014).

Where two headings read alike, the source gives them in different places.

For this experiment, the system named is mice.

Protocol: A formalin-inactivated and a double-inactivated (formalin+UV-irradiation) RRV candidate vaccine was adjusted to 10 μg per dose, and then diluted in 4 fold steps. Each dilution was injected into a group of 10 mice. After 3 weeks the mice were boostered with the corresponding amount of the vaccine. Blood samples were drawn at week 3, before the booster, and at week 6, 3 weeks after the booster. The sera were analyzed by a RRV antibody ELISA. The effective dose 50 (ED50), this is the antigen dose which is sufficient to induce seroconversion in 50% of the immunized mice, was then calculated.

For the substance Formalin, under “Week 3, N 60”, the “number of mice with ELISA-Titer 10^1” value amounted to 8, the “number of mice with ELISA-Titer 10^2” value amounted to 8, the “number of mice with ELISA-Titer 10^3” value is given as 9 and the “number of mice with ELISA-Titer 10^4” value is reported as 0. Further, under “Week 3, N 60”, the “number of mice with ELISA-Titer 10^5” value is 0, the “number of mice with ELISA-Titer 10^6” value was 0, the “number of mice with ELISA-Titer 10^7” value is on record as 0 and the “number of mice with ELISA-Titer 10^8” value turned out to be 0. For the same substance, under “Week 3, N 60”, the “number of mice with ELISA-Titer <10^1” value was determined as 35. Also, the “number of mice with ELISA-Titer 10^4” value (Week 3, N 60, listed as formalin group) is “no mouse”. In addition, under “Week 6, after booster, N 60”, the “number of mice with ELISA-Titer 10^1” value is 7, the “number of mice with ELISA-Titer 10^2” value stood at 5, the “number of mice with ELISA-Titer 10^3” value was 15 and the “number of mice with ELISA-Titer 10^4” value came out at 11. Further, under “Week 6, after booster, N 60”, the “number of mice with ELISA-Titer 10^5” value was found to be 8, the “number of mice with ELISA-Titer 10^6” value is 0, the “number of mice with ELISA-Titer 10^7” value came to 0 and the “number of mice with ELISA-Titer 10^8” value is 0. The “number of mice with ELISA-Titer <10^1” value (Week 6, after booster, N 60) came out at 14. In addition, the “ED50 Week 6 (Booster)” value (mice, 3 weeks after the booster) is listed as 33 ng. Also, for the setting “mice, before the booster, antigen dose inducing seroconversion in 50% of immunized mice”, the “ED50 Week 3” value is recorded as 635 ng.
